Data on 11 molecules can be found in patent publication US12441708B2, “Cereblon ligands and bifunctional compounds comprising the same” (Arvinas Operations, Inc., priority 2017, dated 2025).

Molecules are shown by their SMILES.

Type in all cases: cell-based
For test [1], the target named is T1, estrogen receptor-alpha (ERα) (Homo sapiens (Human), UniProt P03372). The test is described as follows: Estrogen receptor-alpha (ERα) degradation assay in T47D cells. The following applies: % degraded, 5 day incubation, read-out: ER Degradation Dmax.
In another test the test system is estrogen receptor. Description: ERE luciferase assay in T47D-KBluc cells. The following applies: Homo sapiens, 24 hours, read-out: ER Target Engagement IC50. The method, then:
1. ERE Luciferase Assay for Compounds in Table 2
T47D-1(Bluc cells (ATCC® ECRL 2 65, T47D human breast cancer cells stably transfected with estrogen responsive element/promoter/luciferase reporter gene) were seeded into 96-well white opaque plates in IR: PM growth medium supplemented with 10% fetal bovine serum (FBS) and allowed to adhere overnight in a 37° C. humidified incubator. The following day, cells were treated with PROTACs in a 12-point concentration curve (top final concentration of 300 nM with subsequent concentrations being 3-fold less with […] being the lowest concentration in the assay). Each PROTAC was tested independently in two experiments on 96-well plates. After 24 hours, media was removed and lysis buffer was added to the wells. Following lysis, Bright-Glo™ Luciferase Assay Substrate (Promega, Madison WI) was added and the luciferase activity was measured using a Cytation 3 plate reader (BioTek™, Winooski, VT). Each compound was assayed in duplicate and the activity was calculated as […] using GraphPad Prism software (San Diego, CA).

Test [2] deals with T1, estrogen receptor-alpha (ERα). Description: Estrogen receptor-alpha (ERα) degradation assay in MCF7 cells (In-Cell Western / western blot). The following applies: % degraded, read-out: ER Degradation Dmax. The method, then: 2. Estrogen Receptor-Alpha (ERα) Degradation Assay in MCF-7 Cells Using Western Blot Method for Table 5
The exemplary novel ERα degraders were assessed for their activity in degrading ERα in MCF-7 cells via western blot. The assay was carried out in the presence of 10% FBS or high percentage of human or mouse serum. Protocols of the western blot assay are described below.
MCF7 cells were grown in DMEM/F12 with 10% FBS and seeded at 24,000 cells per well in 100 μl into 96-well clear tissue culture plates. The following day, the cells were treated with PROTACs in a […] concentration curve with 100 nM being the top concentration and serial dilutions to make the other concentrations (30 nM, 10 nM. 3 nM, 1 nM, and 0.3 nM). At all concentrations, 0.01% DMSO is the final concentration in the well. The following day, the plates are aspirated, washed with 50 μl of cold PBS. The cells are lysed with 50 μl/well 4° C. Cell Lysis Buffer (Catalog #9803; Cell Signaling Technology, Danvers, MA) (20 mM Tris-HCL (pH 7.5), 150 mM NaCl, 1 mM Na2EDTA, 1 mM EGTA, 1% Triton, 2.5 mM sodium pyrophosphate, 1 mM B-glycerophosphate, 1 mM sodium vanadate, 1 μg/ml leupeptin). Lysates were clarified at 16,000× g for 10 minutes, and 2 μg of protein was subjected to SDS-PAGE analysis and followed by immunoblotting according to standard protocols. The antibodies used were ERα (Cell Signaling, Technologies Catalog #8644), and Tubulin (Sigma Catalog #T9026; St. Louis, MO). Detection reagents were Clarity Western ECL substrate (Bio-Rad Catalog 4170-5060; Hercules, CA).
Alternatively, MCF7 cells were grown in DMEM/F12 with 10% FBS and seeded at 24,000 cells per well in 500 μl in 24-well clear tissue culture plates. The following day, the cells were treated with PROTACs in a 5-point concentration curve (100 nM, 33 nM, 11 nM, 3.7 nM, and 1.2 nM) in the presence of 0.01% DMSO. After 72 hours, the wells are aspirated and washed with 500 μl of PBS. The cells are lysed with 100 μl/well 4° C. Cell Lysis Buffer (Catalog #9803; Cell Signaling Technology, Danvers, MA) (20 mM Tris-HCL (pH 7.5), 150 mM NaCl, 1 mM Na2EDTA, 1 mM EGTA, 1% Triton, 2.5 mM sodium pyrophosphate, 1 mM B-glycerophosphate, 1 mM sodium vanadate, 1 ug/ml leupeptin). Lysates were clarified at 16,000× g for 10 minutes, and 2 μg of protein was subjected to SDS-PAGE analysis and followed by immunoblotting according to standard protocols. The antibodies used were ERα (Cell Signaling Technologies Catalog #8644), and Tubulin (Sigma Catalog #T9026; St. Louis, MO). Detection reagents were Clarity Western ECL substrate (Bio-Rad Catalog 4170-5060; Hercules, CA).
3. Estrogen receptor-alpha (ERα) degradation assay using In-Cell Western™ Assay for Table 5
Degradation of ERα by claimed compounds were determined in MCF7 cells using an In-Cell Western™ assay. Briefly, MCF7 cells were plated in 96-well plates (2000 cells per well in 100 μl media) and incubated at 37° C. under an atmosphere of 5% CO2 in a humidified incubator overnight. One-hundred (100) μl of media containing test compound (at 2× concentration) was added to the appropriate wells to provide 11 serially decreasing concentrations (top final concentration, 1 μM then 3-fold less for the next 10 concentrations); a vehicle control (DMSO) was also added for each compound. For each experiment, all compounds were assayed in duplicate plates. Cells were then incubated for 3 or 5 days in the above-mentioned environment. The assay was terminated by removal of media, a single wash with ice-cold PBS and the addition of […] paraformaldehyde (PFA: 4% in PBS). After 15 minutes in PFA at room temperature, the cells were permeabilized in Tris-phosphate-buffered saline with Tween (0.1%) (TBST) supplemented with Triton X-100 (0.5%) for 15 minutes. Cells were then blocked in BSA (TBST with BSA, 3%) for one hour. […] The cells were incubated overnight at 4° C. […]

T1 sequence (P03372 whole entry): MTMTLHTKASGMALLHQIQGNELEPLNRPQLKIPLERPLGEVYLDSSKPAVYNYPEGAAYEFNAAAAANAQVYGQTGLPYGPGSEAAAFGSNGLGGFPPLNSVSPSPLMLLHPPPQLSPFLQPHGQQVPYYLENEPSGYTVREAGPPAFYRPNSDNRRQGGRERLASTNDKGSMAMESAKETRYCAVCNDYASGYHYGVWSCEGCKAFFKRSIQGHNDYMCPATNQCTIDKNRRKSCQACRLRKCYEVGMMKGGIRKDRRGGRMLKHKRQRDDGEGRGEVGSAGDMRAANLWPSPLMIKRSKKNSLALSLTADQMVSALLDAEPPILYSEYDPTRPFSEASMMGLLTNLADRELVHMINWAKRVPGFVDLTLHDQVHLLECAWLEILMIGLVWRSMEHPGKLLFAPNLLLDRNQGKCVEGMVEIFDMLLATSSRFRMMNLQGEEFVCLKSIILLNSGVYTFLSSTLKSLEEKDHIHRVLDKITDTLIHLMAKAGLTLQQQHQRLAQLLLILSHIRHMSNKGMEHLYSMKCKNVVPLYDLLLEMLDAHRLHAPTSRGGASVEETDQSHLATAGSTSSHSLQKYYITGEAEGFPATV

As to `CCN(C(=O)c1ccc(N2CCN(CCCCCOc3ccc([C@@H]4c5ccc(O)cc5CC[C@@H]4c4ccccc4)cc3)CC2)cc1OC)C1CCC(=O)NC1=O` (mixture of isomers) [PROTAC-92, rac-N-(2,6-dioxopiperidin-3-yl)-N-ethyl-4-(4-(5-(4-((1R,2S)-6-hydroxy-2-phenyl-1,2,3,4-tetrahydronaphthalen-1-yl)phenoxy)pentyl)piperazin-1-yl)-2-methoxybenzamide], in test [1], the Dmax is ≤ 50%.
For the molecule `O=C1CCC(N2CC(Oc3cccc(C4CCN(CCCCOc5ccc([C@@H]6c7ccc(O)cc7CC[C@@H]6c6ccccc6)cc5)CC4)c3)=CC2=O)C(=O)N1` (mixture of isomers) [PROTAC-104, rac-3-(4-(3-(1-(4-(4-((1R,2S)-6-hydroxy-2-phenyl-1,2,3,4-tetrahydronaphthalen-1-yl)phenoxy)butyl)piperidin-4-yl)phenoxy)-2-oxo-2,5-dihydro-1H-pyrrol-1-yl)piperidine-2,6-dione], the IC50 in the test on estrogen receptor fell in the range of 1 to 10 nM. Further, the Dmax in test [1] was ≤ 50%.
For `O=C1CCC(N2CC(Oc3cccc(C4CCN(CCCOc5ccc([C@H]6c7ccc(O)cc7CC[C@H]6c6ccccc6)cc5)CC4)c3)=CC2=O)C(=O)N1` (mixture of isomers) [PROTAC-105, rac-3-(4-(3-(1-(3-(4-((1R,2S)-6-hydroxy-2-phenyl-1,2,3,4-tetrahydronaphthalen-1-yl)phenoxy)propyl)piperidin-4-yl)phenoxy)-2-oxo-2,5-dihydro-1H-pyrrol-1-yl)piperidine-2,6-dione] the same measures were 1 to 10 nM and ≤ 50%.
In the case of `O=C1CCC(N2CC(Oc3cccc(C4CCN(CCCCOc5ccc([C@H]6c7ccc(O)cc7CC[C@H]6c6ccccc6)cc5)CC4)c3)=CC2=O)C(=O)N1` (mixture of isomers) [PROTAC-109, rac-3-(4-(3-(1-(4-(4-((1R,2S)-6-hydroxy-2-phenyl-1,2,3,4-tetrahydronaphthalen-1-yl)phenoxy)butyl)piperidin-4-yl)phenoxy)-2-oxo-2,5-dihydro-1H-pyrrol-1-yl)piperidine-2,6-dione], in the test with estrogen receptor, the IC50 is ≥ 100 nM. Besides, in test [1], the Dmax was ≤ 50%.
Turning to `O=C1CCC(n2cc(-c3ccc(N4CCN(CCCOc5ccc([C@@H]6c7ccc(O)cc7CC[C@@H]6c6ccccc6)cc5)CC4)nc3)cn2)C(=O)N1` (mixture of isomers) [PROTAC-111, rac-3-(4-(6-(4-(3-(4-((1R,2S)-6-hydroxy-2-phenyl-1,2,3,4-tetrahydronaphthalen-1-yl)phenoxy)propyl)piperazin-1-yl)pyridin-3-yl)-1H-pyrazol-1-yl) piperidine-2,6-dione], the Dmax in test [2] (5 day incubation) was ≤ 50%. Also, the IC50 in the test with estrogen receptor is < 1 nM.
For `O=C1CCC(N2CC(c3ccc(N4CCN(CC5CCN(c6ccc([C@@H]7c8ccc(O)cc8CC[C@@H]7c7ccccc7)cc6)CC5)CC4)cc3)=CC2=O)C(=O)N1` (stereo partly drawn) [PROTAC-89, 3-[3-[4-[4-[[1-[4-[(1R,2S)-6-hydroxy-2-phenyl-tetralin-1-yl]phenyl]-4-piperidyl]methyl]piperazin-1-yl]phenyl]-5-oxo-2H-pyrrol-1-yl]piperidine-2,6-dione] the same measures were > 75% and 1 to 10 nM.
For `O=C1CCC(n2ncc(N3CCN(CC4CCN(c5ccc([C@@H]6c7ccc(O)cc7CC[C@@H]6c6ccccc6)cc5)CC4)CC3)cc2=O)C(=O)N1` (stereo partly drawn) [PROTAC-102, 3-[4-[4-[[1-[4-[(1R, 2 S)-6-hydroxy-2-phenyl-tetralin-1-yl]phenyl]-4-piperidyl]methyl]piperazin-1-yl]-6-oxo-pyridazin-1-yl]piperidine-2,6-dione] the same measures were > 75% and 1 to 10 nM.
Regarding `O=C1CCC(n2ncc(Oc3ccc(O[C@@H]4CCN(CCOc5ccc([C@@H]6c7ccc(O)cc7CC[C@@H]6c6ccc(F)cc6)cc5)C4)nc3)cc2=O)C(=O)N1` (stereo partly drawn) [PROTAC-103, 3-(4-((6-(((R)-1-(2-(4-((1R,2S)-2-(4-fluorophenyl)-6-hydroxy-1,2,3,4-tetrahydronaphthalen-1-yl)phenoxy)ethyl)pyrrolidin-3-yl)oxy)pyridin-3-yl)oxy)-6-oxopyridazin-1(6H)-yl)piperidine-2,6-dione], the Dmax in test [2] (3 day incubation) is ≤ 50%. In the test with estrogen receptor, the IC50 was < 1 nM.
For the molecule `O=C1CCC(N2CC(Oc3cccc(C4CCN(CCCOc5ccc([C@@H]6c7ccc(O)cc7CC[C@@H]6c6ccccc6)cc5)CC4)c3)=CC2=O)C(=O)N1` (stereo partly drawn) [PROTAC-106, 3-(4-(3-(1-(3-(4-((1R,2 S)-6-hydroxy-2-phenyl-1,2,3,4-tetrahydronaphthalen-1-yl)phenoxy)propyl)piperidin-4-yl)phenoxy)-2-oxo-2,5-dihydro-1H-pyrrol-1-yl)piperidine-2,6-dione], the IC50 in the test on estrogen receptor is < 1 nM. Besides, the Dmax in test [1] is ≤ 50%.
As for `Cc1nc2c(NCCN3CCN(CCOc4ccc(Oc5c(-c6ccc(Br)cc6)sc6cc(O)ccc56)cc4)CC3)cccc2c(=O)n1C1CCC(=O)NC1=O` (stereo not drawn) [PROTAC-107], the Dmax in test [2] (3 day incubation) is ≤ 50%. For the same molecule, the IC50 with estrogen receptor lay within 10 to 100 nM.
For `Cc1nc2c(OCCN3CCN(CCOc4ccc(Oc5c(-c6ccc(Br)cc6)sc6cc(O)ccc56)cc4)CC3)cccc2c(=O)n1C1CCC(=O)NC1=O` (stereo not drawn) [PROTAC-108, 3-(8-(2-(4-(2-(4-((2-(4-bromophenyl)-6-hydroxybenzo[b]thiophen-3-yl)oxy)phenoxy)ethyl)piperazin-1-yl)ethoxy)-2-methyl-4-oxoquinazolin-3(4H)-yl)piperidine-2,6-dione] the same measures were ≤ 50% and 1 to 10 nM.
